# Results: PubChem BioAssay (NCI)
#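 Cells were grown in 96-well plates and exposed to each compound for 48 hours at five concentrations; endpoints were interpolated linearly between bracketing concentrations, or set to the highest concentration if not reached. Definition used: TGI = concentration required for complete inhibition of growth.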
# Key:
# Experiment in all cases: DTP human tumour cell line panel, 48 h
# COLO 205 colon = test system: COLO 205 colon
# EKVX NSCLC = test system: EKVX NSCLC
# SK-OV-3 ovarian = test system: SK-OV-3 ovarian
# NCI-H522 lung = test system: NCI-H522 lung
# SF-268 CNS = test system: SF-268 CNS
# HT29 colon = test system: HT29 colon
# KM20L2 colon = test system: KM20L2 colon
# M19-MEL melanoma = test system: M19-MEL melanoma
# RXF-631 renal = test system: RXF-631 renal
# RXF 393 renal = test system: RXF 393 renal
# HCT-15 colon = test system: HCT-15 colon
# NCI-H23 lung = test system: NCI-H23 lung
# M14 melanoma = test system: M14 melanoma
# TK-10 renal = test system: TK-10 renal
# A498 renal = test system: A498 renal
# HCT-116 colon = test system: HCT-116 colon
# U251 CNS = test system: U251 CNS
# SK-MEL-28 melanoma = test system: SK-MEL-28 melanoma
# OVCAR-8 ovarian = test system: OVCAR-8 ovarian
# LXFL 529 NSCLC = test system: LXFL 529 NSCLC
# K-562 leukemia = test system: K-562 leukemia
# CCRF-CEM leukemia = test system: CCRF-CEM leukemia
# IGROV1 ovarian = test system: IGROV1 ovarian
# DMS 273 small cell lung = test system: DMS 273 small cell lung
# 786-0 renal = test system: 786-0 renal
# SNB-75 CNS = test system: SNB-75 CNS
# MALME-3M melanoma = test system: MALME-3M melanoma
# UO-31 renal = test system: UO-31 renal
# LOX IMVI melanoma = test system: LOX IMVI melanoma
# SW-620 colon = test system: SW-620 colon
# NCI-H460 lung = test system: NCI-H460 lung
# SN12C renal = test system: SN12C renal
# UACC-257 melanoma = test system: UACC-257 melanoma
# SF-295 CNS = test system: SF-295 CNS
# SNB-19 CNS = test system: SNB-19 CNS
# HOP-92 NSCLC = test system: HOP-92 NSCLC
# SK-MEL-2 melanoma = test system: SK-MEL-2 melanoma
# SR leukemia = test system: SR leukemia
# NCI-H226 lung = test system: NCI-H226 lung
# KM12 colon = test system: KM12 colon
# OVCAR-4 ovarian = test system: OVCAR-4 ovarian
# UACC-62 melanoma = test system: UACC-62 melanoma
# SF-539 CNS = test system: SF-539 CNS
# HL-60(TB) leukemia = test system: HL-60(TB) leukemia
# DMS 114 small cell lung = test system: DMS 114 small cell lung
# HOP-62 NSCLC = test system: HOP-62 NSCLC
# MOLT-4 leukemia = test system: MOLT-4 leukemia
# RPMI-8226 leukemia = test system: RPMI-8226 leukemia
# DLD-1 colon = test system: DLD-1 colon
# OVCAR-3 ovarian = test system: OVCAR-3 ovarian
# CAKI-1 renal = test system: CAKI-1 renal
# ACHN renal = test system: ACHN renal
# SK-MEL-5 melanoma = test system: SK-MEL-5 melanoma
# A549 NSCLC = test system: A549 NSCLC
# OVCAR-5 ovarian = test system: OVCAR-5 ovarian
smiles,measurement,setting,value
NC(=O)c1cc([N+](=O)[O-])cc([N+](=O)[O-])c1,TGI,COLO 205 colon,> 100 µM
same,TGI,EKVX NSCLC,> 100 µM
same,TGI,SK-OV-3 ovarian,> 100 µM
same,TGI,NCI-H522 lung,> 100 µM
same,TGI,SF-268 CNS,> 100 µM
same,TGI,HT29 colon,> 100 µM
same,TGI,KM20L2 colon,> 100 µM
same,TGI,M19-MEL melanoma,46.8 µM
same,TGI,RXF-631 renal,> 100 µM
same,TGI,RXF 393 renal,> 100 µM
same,TGI,HCT-15 colon,> 100 µM
same,TGI,NCI-H23 lung,> 100 µM
same,TGI,M14 melanoma,> 100 µM
same,TGI,TK-10 renal,> 100 µM
same,TGI,A498 renal,> 100 µM
same,TGI,HCT-116 colon,> 100 µM
same,TGI,U251 CNS,> 100 µM
same,TGI,SK-MEL-28 melanoma,> 100 µM
same,TGI,OVCAR-8 ovarian,> 100 µM
same,TGI,LXFL 529 NSCLC,> 100 µM
same,TGI,K-562 leukemia,> 100 µM
same,TGI,CCRF-CEM leukemia,> 100 µM
same,TGI,IGROV1 ovarian,> 100 µM
same,TGI,DMS 273 small cell lung,> 100 µM
same,TGI,786-0 renal,> 100 µM
same,TGI,SNB-75 CNS,> 100 µM
same,TGI,MALME-3M melanoma,> 100 µM
same,TGI,UO-31 renal,> 100 µM
same,TGI,LOX IMVI melanoma,> 100 µM
same,TGI,SW-620 colon,> 100 µM
same,TGI,NCI-H460 lung,> 100 µM
same,TGI,SN12C renal,> 100 µM
same,TGI,UACC-257 melanoma,> 100 µM
same,TGI,SF-295 CNS,> 100 µM
same,TGI,SNB-19 CNS,> 100 µM
same,TGI,HOP-92 NSCLC,> 100 µM
same,TGI,SK-MEL-2 melanoma,> 100 µM
same,TGI,SR leukemia,> 100 µM
same,TGI,NCI-H226 lung,> 100 µM
same,TGI,KM12 colon,> 100 µM
same,TGI,OVCAR-4 ovarian,> 100 µM
same,TGI,UACC-62 melanoma,> 100 µM
same,TGI,SF-539 CNS,> 100 µM
same,TGI,HL-60(TB) leukemia,> 100 µM
same,TGI,DMS 114 small cell lung,> 100 µM
same,TGI,HOP-62 NSCLC,> 100 µM
same,TGI,MOLT-4 leukemia,> 100 µM
same,TGI,RPMI-8226 leukemia,> 100 µM
same,TGI,DLD-1 colon,> 100 µM
same,TGI,OVCAR-3 ovarian,> 100 µM
same,TGI,CAKI-1 renal,> 100 µM
same,TGI,ACHN renal,> 100 µM
same,TGI,SK-MEL-5 melanoma,> 100 µM
same,TGI,A549 NSCLC,> 100 µM
same,TGI,OVCAR-5 ovarian,> 100 µM
